Read-outs that look alike come from different tables or passages of the source.
Experiments:
[1] = system: NCI-H1975 EGFR-L858R-T790M-C797S cells; assay: Inhibitory activity on proliferation of NCI-H1975 EGFR-L858R-T790M-C797S cells (CellTiter-Glo, 72 h); format: cell-based; settings: Homo sapiens
Method in brief: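 Cells (1500/well) exposed to graded compound concentrations for 72 h at 37 °C in hygromycin-free RPMI1640 + 10% FBS, 0.1% DMSO vehicle. Viability by CellTiter-Glo luminescence relative to vehicle; IC50 from nonlinear sigmoidal dose-survival fit.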

[2] = Pharmacokinetic test in mice; format: in vivo; settings: male, ICR, mouse, po, administration i.g. (10 mg/kg), plasma
Method in brief: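 Male ICR mice (20-25 g), fasted 12-14 h before dosing and fed 4 h after, received a single intravenous or intragastric dose. Orbital plasma sampled from 0 to 24 h (5 min-24 h points); LC-MS/MS quantitation for PK parameters and bioavailability.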

[3] = system: Ba/F3-TEL-EGFR-T790M-L858R-C797S cells; assay: Inhibitory activity on proliferation of Ba/F3-TEL-EGFR-T790M-L858R-C797S cells (CellTiter-Glo, 72 h); format: cell-based
Protocol: Ba/F3-TEL-EGFR-T790M-L858R-C797S cells were cultured in an incubator at 37° C. with 5% CO2. The cells in the logarithmic phase were collected, counted and plated in a 96-well plate at a density of 2000 cells/well. The compounds at different concentrations were added, and a vehicle control group (cells plus DMSO) and a blank control group (cell culture mediums plus DMSO) were provided, wherein the concentration of DMSO was both 0.1%. The cell culture plate was cultured in an incubator at 37° C. with 5% CO2 for 72 hours. After the incubation was completed, the cell culture plate was removed and allowed to equilibrate to room temperature for 10 min. […] The plate was placed at room temperature for 10 min, and then […] signal values were measured using a microplate reader (SpectraMax Paradigm). […] The inhibition rates corresponding to different concentrations of compounds were calculated, and using the GraphPad Prism software, the inhibition rate curves were plotted, and IC50 values were calculated. wherein RLUDrug was the readout of the drug-treated group, RLUMax was the readout of the control group, and RLUMin was the readout of the blank group.

Row | SMILES | IC50 ([1]; read-out: IC50 (class symbol)) [nM] | IC50 ([1]; read-out: IC50 (value)) [nM] | AUC [2] [µg·h/mL] | half-life [2] [h] | IC50 [3] [nM]
1 | COc1cc(N2CCC(CN3CCN(c4ccc5c(c4)C(=O)N(C4CCC(=O)NC4=O)C5=O)CC3)CC2)c(-c2cnn(C)c2)cc1Nc1ncc(Cl)c(Nc2ccc(C3CC3)cc2P(C)(C)=O)n1 (stereo not shown) [Compound 107, 5-(4-((1-(4-((5-chloro-4-((4-cyclopropyl-2-(dimethylphosphoryl)phenyl)amino)pyrimidin-2-yl)amino)-5-methoxy-2-(1-methyl-1H-pyrazol-4-yl)phenyl)piperidin-4-yl)methyl)piperazin-1-yl)-2-(2,6-dioxopiperidin-3-yl)isoindoline-1,3-dione] | < 200 | 45 | 130 | 13.9 | 15.6
2 | COc1cc(N2CCC(CN3CCN(c4ccc5c(c4)C(=O)N(C4CCC(=O)NC4=O)C5=O)CC3)CC2)c(-c2cnn(C)c2)cc1Nc1ncc(Br)c(Nc2ccc(C3CC3)cc2P(C)(C)=O)n1 (stereo not shown) [Compound 106, 5-(4-((1-(4-((5-bromo-4-((4-cyclopropyl-2-(dimethylphosphoryl)phenyl)amino)pyrimidin-2-yl)amino)-5-methoxy-2-(1-methyl-1H-pyrazol-4-yl)phenyl)piperidin-4-yl)methyl)piperazin-1-yl)-2-(2,6-dioxopiperidin-3-yl)isoindoline-1,3-dione] | < 200 | 112 | 145 | 18 | 15.6

Reference: patent publication US20240269298A1, “PHOSPHONYL DERIVATIVE, AND COMPOSITION AND PHARMACEUTICAL APPLICATION THEREOF” (XIZANG HAISCO PHARMACEUTICAL CO., LTD., priority 2021, published 2024)
